Our source for the % of control and % of inhibition values is ChEMBL document CHEMBL5465560, “Selectivity Literature for EUbOPEN Chemogenomic Library” (2024).

The target in experiment [1] is Glycogen synthase kinase-3 beta (Homo sapiens, UniProt P49841). The experiment can be described thus: Selectivity interaction (ProQinase) EUB0000171b GSK3B.
The target in experiment [2] is Serine/threonine-protein kinase pim-2 (Homo sapiens, UniProt Q9P1W9). To be noted: at 10 µM.
In experiment [3] the target is T1, Muscle, skeletal receptor tyrosine-protein kinase (Homo sapiens) (UniProt O15146).
T1 sequence (whole entry): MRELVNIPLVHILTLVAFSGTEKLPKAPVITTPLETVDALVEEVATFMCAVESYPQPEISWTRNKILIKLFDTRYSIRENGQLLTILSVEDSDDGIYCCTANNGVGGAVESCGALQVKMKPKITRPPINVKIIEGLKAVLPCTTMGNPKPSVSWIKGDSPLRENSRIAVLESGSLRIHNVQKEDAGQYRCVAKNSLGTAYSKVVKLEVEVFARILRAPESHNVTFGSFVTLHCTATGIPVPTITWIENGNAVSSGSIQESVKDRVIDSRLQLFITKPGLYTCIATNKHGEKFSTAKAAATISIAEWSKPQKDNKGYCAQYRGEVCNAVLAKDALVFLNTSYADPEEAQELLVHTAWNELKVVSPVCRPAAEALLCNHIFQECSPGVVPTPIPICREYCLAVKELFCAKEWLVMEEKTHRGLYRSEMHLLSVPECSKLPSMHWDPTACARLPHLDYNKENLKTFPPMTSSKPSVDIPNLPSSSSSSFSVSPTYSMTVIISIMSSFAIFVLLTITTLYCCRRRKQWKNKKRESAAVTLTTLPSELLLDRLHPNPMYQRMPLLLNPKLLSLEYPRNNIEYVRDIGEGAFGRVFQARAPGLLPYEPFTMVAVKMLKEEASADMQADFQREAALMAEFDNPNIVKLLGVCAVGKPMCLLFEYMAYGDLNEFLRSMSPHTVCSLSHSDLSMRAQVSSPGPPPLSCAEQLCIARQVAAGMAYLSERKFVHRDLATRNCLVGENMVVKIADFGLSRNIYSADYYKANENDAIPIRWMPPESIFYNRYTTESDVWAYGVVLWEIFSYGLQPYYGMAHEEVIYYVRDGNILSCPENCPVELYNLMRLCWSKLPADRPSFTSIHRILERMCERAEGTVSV
To be noted: at 10 µM.

Experiment [4] concerns the target T2, Phosphorylase b kinase gamma catalytic chain, liver/testis isoform (Homo sapiens) (UniProt P15735).
T2 sequence (whole entry): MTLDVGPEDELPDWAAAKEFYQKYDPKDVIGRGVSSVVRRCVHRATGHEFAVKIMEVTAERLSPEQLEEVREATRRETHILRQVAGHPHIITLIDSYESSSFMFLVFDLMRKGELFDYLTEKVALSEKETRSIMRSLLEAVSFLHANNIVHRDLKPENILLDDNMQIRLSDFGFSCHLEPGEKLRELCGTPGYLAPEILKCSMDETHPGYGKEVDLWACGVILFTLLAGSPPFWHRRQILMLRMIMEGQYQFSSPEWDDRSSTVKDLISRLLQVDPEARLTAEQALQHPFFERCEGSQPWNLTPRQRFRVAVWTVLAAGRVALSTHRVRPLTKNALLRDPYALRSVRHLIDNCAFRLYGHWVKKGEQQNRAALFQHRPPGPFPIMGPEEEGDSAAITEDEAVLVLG
To be noted: at 10 µM.

In experiment [5] the target is D(3) dopamine receptor (Homo sapiens, UniProt P35462). In words: Selectivity interaction (GPCR panel (PDSP screen)) EUB0001079a DRD3. To be noted: at 10 µM.
The target of experiment [6] is Serine/threonine-protein kinase PLK1 (Homo sapiens, UniProt P53350). In words: Selectivity interaction (KinomeScan (DiscoverX)) EUB0001049a PLK1. To be noted: at 1 µM.
The target of experiment [7] is RAC-gamma serine/threonine-protein kinase (Homo sapiens, UniProt Q9Y243). In words: Selectivity interaction (KinomeScan (DiscoverX)) EUB0000655a AKT3. To be noted: at 10 µM.
Experiment [8] has as its target Serine/threonine-protein kinase 33 (Homo sapiens) (UniProt Q9BYT3). The experiment can be described thus: Selectivity interaction (KinomeScan (DiscoverX)) EUB0000666a STK33. To be noted: at 10 µM.
Experiment [9] concerns the target Aurora kinase B (Homo sapiens, UniProt Q96GD4). The experiment can be described thus: Selectivity interaction (KinomeScan (DiscoverX)) EUB0000607a AURKB. To be noted: at 10 µM.
Experiment [10] has as its system Hepatocyte growth factor receptor (Homo sapiens), P08581 [Y1235D]. To be noted: at 10 µM.
The target in experiment [11] is Phosphatidylinositol 4,5-bisphosphate 3-kinase catalytic subunit beta isoform (Homo sapiens) (UniProt P42338). The experiment can be described thus: Selectivity interaction (ActivX KiNativ screen (ex vivo kinase selectivity in human PBMCs)) EUB0001619a PIK3CB. The experiment is classed as cell-based. To be noted: PBMC, at 1 µM.
In experiment [12] the target is T3, Mitogen-activated protein kinase 15 (Homo sapiens) (UniProt Q8TD08).
T3 sequence (whole entry): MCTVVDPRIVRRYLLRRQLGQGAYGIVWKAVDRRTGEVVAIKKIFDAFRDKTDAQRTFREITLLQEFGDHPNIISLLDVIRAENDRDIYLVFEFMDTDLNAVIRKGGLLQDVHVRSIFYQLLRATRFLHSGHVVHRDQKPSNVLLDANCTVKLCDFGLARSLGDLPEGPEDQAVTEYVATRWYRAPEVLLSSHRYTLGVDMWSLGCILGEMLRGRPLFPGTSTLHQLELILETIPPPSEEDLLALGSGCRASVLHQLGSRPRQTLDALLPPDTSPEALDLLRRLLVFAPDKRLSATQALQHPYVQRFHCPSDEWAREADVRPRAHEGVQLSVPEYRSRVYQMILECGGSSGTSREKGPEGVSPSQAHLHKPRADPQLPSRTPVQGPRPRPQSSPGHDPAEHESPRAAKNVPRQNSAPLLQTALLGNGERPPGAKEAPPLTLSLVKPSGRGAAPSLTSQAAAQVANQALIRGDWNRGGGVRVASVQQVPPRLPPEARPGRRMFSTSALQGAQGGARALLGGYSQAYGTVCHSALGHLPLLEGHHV
In words: Selectivity interaction (Kinase panel (literature)) EUB0001199aCl MAPK15. To be noted: at 1 µM.

Chain of Glycogen synthase kinase-3 beta (P49841 whole entry, looked up): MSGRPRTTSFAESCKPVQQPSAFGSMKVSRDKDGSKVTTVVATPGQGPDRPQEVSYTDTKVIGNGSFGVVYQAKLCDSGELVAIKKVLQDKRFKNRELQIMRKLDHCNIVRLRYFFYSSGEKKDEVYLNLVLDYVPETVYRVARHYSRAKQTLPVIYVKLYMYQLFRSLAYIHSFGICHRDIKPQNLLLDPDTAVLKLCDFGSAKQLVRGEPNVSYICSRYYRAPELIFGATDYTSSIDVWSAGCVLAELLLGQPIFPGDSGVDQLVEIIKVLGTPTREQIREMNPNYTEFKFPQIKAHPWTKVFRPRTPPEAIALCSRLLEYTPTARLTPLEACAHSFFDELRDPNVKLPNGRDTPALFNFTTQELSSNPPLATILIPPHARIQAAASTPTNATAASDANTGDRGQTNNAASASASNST
Chain of Serine/threonine-protein kinase pim-2 (Q9P1W9 whole entry, looked up): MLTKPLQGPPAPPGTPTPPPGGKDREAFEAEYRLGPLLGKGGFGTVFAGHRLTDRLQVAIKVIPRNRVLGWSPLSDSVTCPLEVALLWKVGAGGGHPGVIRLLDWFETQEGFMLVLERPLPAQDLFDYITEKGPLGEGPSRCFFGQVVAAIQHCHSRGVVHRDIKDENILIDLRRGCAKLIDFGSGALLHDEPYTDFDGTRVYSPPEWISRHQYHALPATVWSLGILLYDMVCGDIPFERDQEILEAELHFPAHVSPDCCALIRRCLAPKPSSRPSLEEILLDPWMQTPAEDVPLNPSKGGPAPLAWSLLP
Chain of RAC-gamma serine/threonine-protein kinase (Q9Y243 whole entry): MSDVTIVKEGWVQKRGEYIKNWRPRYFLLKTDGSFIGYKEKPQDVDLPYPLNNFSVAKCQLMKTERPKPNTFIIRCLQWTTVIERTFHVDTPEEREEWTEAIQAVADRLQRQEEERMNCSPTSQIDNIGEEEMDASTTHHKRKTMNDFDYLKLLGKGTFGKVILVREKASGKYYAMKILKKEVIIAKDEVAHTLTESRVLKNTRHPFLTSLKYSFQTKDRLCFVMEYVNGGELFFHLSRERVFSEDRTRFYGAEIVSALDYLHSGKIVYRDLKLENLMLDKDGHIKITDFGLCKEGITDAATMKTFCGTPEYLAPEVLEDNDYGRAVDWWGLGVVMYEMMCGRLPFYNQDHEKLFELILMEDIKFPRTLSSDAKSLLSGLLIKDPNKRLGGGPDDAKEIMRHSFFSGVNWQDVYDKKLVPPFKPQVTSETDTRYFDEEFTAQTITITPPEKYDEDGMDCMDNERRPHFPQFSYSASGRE
Chain of D(3) dopamine receptor (P35462 whole entry): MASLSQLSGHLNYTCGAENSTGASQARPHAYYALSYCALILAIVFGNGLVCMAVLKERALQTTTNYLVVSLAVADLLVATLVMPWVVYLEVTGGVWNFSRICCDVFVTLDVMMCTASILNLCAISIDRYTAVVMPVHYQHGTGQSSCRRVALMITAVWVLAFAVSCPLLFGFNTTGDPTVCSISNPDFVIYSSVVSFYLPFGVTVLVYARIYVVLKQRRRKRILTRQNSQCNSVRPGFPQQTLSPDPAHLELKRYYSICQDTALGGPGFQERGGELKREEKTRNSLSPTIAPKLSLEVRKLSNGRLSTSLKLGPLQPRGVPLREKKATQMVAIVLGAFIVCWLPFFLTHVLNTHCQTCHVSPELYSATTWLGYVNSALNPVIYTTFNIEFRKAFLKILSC
Chain of Serine/threonine-protein kinase PLK1 (P53350 whole entry): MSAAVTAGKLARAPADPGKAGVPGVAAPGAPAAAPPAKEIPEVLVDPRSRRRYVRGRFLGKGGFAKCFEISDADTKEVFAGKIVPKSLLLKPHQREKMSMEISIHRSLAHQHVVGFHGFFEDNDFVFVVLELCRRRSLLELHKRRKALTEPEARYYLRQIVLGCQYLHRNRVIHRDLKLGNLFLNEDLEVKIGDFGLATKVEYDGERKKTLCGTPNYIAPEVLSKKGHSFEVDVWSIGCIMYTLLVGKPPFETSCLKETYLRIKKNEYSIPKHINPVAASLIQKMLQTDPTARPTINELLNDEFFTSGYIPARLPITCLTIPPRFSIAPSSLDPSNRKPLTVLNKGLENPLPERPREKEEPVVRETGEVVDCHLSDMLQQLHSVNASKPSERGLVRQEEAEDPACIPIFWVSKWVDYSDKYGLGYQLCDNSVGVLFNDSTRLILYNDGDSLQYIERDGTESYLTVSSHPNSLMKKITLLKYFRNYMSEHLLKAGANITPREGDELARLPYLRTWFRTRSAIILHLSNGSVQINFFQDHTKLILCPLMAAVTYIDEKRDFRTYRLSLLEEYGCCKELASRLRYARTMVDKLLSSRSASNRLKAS
Chain of Hepatocyte growth factor receptor (Homo sapiens), P08581 [Y1235D] (P08581 whole entry Y1235D, canonical isoform): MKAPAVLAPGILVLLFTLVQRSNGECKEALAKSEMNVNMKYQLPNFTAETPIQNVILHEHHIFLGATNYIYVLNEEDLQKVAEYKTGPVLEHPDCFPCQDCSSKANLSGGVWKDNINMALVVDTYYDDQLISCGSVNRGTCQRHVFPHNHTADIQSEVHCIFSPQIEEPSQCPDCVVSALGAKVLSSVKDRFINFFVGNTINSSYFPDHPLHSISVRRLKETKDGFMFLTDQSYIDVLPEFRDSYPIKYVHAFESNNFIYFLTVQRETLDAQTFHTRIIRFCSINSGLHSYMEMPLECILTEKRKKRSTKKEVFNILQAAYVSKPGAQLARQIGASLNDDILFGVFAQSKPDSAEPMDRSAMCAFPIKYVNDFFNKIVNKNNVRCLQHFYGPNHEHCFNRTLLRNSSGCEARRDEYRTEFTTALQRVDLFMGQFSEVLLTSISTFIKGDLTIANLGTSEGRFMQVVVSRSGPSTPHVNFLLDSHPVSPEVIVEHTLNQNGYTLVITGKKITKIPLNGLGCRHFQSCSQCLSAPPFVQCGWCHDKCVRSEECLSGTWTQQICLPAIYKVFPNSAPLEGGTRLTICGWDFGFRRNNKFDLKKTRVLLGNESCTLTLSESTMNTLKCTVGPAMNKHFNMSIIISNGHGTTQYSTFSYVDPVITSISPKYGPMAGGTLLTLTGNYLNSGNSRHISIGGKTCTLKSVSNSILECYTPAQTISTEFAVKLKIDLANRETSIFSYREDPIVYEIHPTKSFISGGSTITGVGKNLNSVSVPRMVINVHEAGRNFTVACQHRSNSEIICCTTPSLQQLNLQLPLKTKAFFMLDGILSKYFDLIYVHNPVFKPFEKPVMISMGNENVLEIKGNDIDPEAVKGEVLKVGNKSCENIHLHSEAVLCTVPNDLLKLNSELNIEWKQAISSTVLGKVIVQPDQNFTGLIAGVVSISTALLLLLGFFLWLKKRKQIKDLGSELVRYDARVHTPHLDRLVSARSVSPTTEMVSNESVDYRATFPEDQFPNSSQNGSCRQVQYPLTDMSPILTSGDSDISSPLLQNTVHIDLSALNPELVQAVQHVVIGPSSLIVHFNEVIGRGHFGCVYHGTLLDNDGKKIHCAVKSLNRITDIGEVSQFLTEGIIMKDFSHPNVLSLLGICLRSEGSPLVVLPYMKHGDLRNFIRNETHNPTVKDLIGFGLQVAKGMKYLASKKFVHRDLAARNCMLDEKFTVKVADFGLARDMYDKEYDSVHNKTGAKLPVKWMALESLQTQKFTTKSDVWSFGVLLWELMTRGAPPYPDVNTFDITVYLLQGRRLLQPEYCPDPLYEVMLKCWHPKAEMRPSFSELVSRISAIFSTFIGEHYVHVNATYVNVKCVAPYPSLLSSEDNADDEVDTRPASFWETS
Chain of Aurora kinase B (Q96GD4 whole entry): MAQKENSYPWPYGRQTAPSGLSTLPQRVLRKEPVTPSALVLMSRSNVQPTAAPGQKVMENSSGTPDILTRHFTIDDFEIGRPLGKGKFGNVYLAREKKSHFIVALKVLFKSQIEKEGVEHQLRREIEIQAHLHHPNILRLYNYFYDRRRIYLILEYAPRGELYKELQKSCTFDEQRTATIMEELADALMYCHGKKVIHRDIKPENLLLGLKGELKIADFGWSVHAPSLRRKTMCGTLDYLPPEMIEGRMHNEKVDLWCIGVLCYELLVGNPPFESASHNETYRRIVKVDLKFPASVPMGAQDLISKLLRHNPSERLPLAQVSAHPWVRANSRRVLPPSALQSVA
Chain of Serine/threonine-protein kinase 33 (Homo sapiens) (Q9BYT3 whole entry, looked up): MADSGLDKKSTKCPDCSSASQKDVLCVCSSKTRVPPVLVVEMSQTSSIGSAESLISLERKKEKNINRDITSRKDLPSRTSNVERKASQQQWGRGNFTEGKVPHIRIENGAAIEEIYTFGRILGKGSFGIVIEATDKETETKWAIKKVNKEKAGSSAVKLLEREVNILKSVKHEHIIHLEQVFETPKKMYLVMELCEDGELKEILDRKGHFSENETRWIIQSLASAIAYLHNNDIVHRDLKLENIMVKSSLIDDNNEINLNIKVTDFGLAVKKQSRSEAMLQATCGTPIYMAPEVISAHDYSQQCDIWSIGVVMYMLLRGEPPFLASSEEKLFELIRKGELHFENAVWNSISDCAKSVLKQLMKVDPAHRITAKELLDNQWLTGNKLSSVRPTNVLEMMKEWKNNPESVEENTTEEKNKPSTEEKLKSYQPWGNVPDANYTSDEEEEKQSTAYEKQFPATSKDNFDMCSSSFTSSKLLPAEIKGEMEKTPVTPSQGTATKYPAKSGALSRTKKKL

As for `C=CC(=O)Nc1cccc(C(=O)Nc2ccc(Nc3cc(-c4[nH]c(SC)nc4C)ccn3)cc2)c1`, the results for the % of control in [1] (at 1 µM) and in experiment [1] (at 5 µM) were 91% and 85%, respectively.

Consider `CCN(CC)CCCCNc1ncc2cc(-c3cc(OC)cc(OC)c3)c(NC(=O)NC(C)(C)C)nc2n1`, for which the % of control in [2], in experiment [3] and in [4] was 100% in each case.

Take `Nc1cnc(N2CCc3cc(S(=O)(=O)Nc4c(F)cc(Cl)cc4F)cc(N4CCCC4=O)c32)nc1` [TP-020n]: the % of inhibition in [5] turned out to be 7.41%.

`COc1cc(Nc2nc(C)cc(-c3cnn4nc(OC)ccc34)n2)cc(C(F)(F)F)c1` came in with a % of control in [6] of 87%.

For `CN(C)CCOc1ccc(-c2nc(-c3ccncc3)c(-c3ccc4c(c3)CC/C4=N\O)[nH]2)cc1`, in experiment [7], the % of control turned out to be 97%.

Consider `O=C(NOC[C@H](O)CO)c1ccc(F)c(F)c1Nc1ccc(I)cc1F`, for which the % of control in [8] was found to be 79%.

With `CNC(=O)Nc1ccc(-c2nc(N3CC4CCC(C3)O4)c3cnn(C4CCC5(CC4)OCCO5)c3n2)cc1`, the % of control in experiment [9] turned out to be 92%.

Molecule `COCC(=O)NC/C=C/c1ccc2ncnc(Nc3ccc(Oc4ccc(C)nc4)c(C)c3)c2c1` [CP-724714] returned a % of control in experiment [10] of 81%.

With `N#Cc1cccc(-c2c[nH]c3ncnc(N4CCOCC4)c23)c1`, in [11], the % of inhibition was -1%.

Turning to `CN1Cc2nccc(-c3cn(C)nc3-c3ccc(F)cc3)c2C1=O`, the % of inhibition in experiment [12] was determined as 10%.
